The record followed here is the NIST ThermoML archive (doi:10.1016/j.jct.2004.07.008).

Numbers after ± are expanded uncertainties.

For series [1] the following is noted: 100 kPa, Liquid.
Series [2] can be described thus: xn = mol fraction of the nth substance listed. Particulars: 278.15 K; 100 kPa; Liquid; x2 = 0.

Take `CCNCC` [diethylamine]: the mass density in series [1] (278.15 K) is given as 719.94 ± 1.2 kg/m3; in series [1] (288.15 K) it was 709.52 ± 1.2 kg/m3; in series [1] (293.15 K), 704.59 ± 1.2 kg/m3; in series [1] (298.15 K) it was 698.97 ± 1.2 kg/m3; in series [1] (308.15 K), 688.29 ± 1.3 kg/m3.
In the case of `O` [water] + CCNCC, the mass density in series [2] stood at 999.964 ± 0.25 kg/m3.

As usually defined, the mass density is the mass of a sample divided by its volume.
